Columns and labels:
[1] = test system: spleen cells secreting γ-interferon; format: in vivo, BALB/c mice; conditions: after restimulation with inactivated SARS virus; in response to some of the peptides used
[2] = test system: spleen cells stimulated with the whole inactivated virus; format: in vivo, BALB/c mice; conditions: after stimulation with inactivated virus; mice given ethyl DOPC in addition to the antigen

## CCCCCCCC/C=C\CCCCCCCC(=O)OC[C@@H](COP(=O)(OCC)OCC[N+](C)(C)C)OC(=O)CCCCCCC/C=C\CCCCCCCC (stereo partly drawn) [ethyl DOPC, 1,2-dioleoyl-sn-glycero-3-ethylphosphocholine]
[1]
  production of γ-interferon (ELISPOT after restimulation): increased
[2]
  production of IL-5 (in words): not clearly modified
  production of γ-IFN (in words): considerably increased
